Reference: patent US11090312B2, “Methods of treating hypogonadism with transnasal testerosterone bio-adhesive gel formulations in male with allergic rhinitis, and methods for preventing an allergic rhinitis event” (Acerus Biopharma Inc., priority 2013, dated 2021)

What was measured:
[1] = pKa assessment of testosterone; settings: from molecular structure
[2] = Solubility of testosterone in water, solvents and oils; settings: maximum

C[C@]12CC[C@H]3[C@@H](CCC4=CC(=O)CC[C@@]43C)[C@@H]1CC[C@@H]2O [Testosterone, 17β-Hydroxyandrost-4-en-3-one]
pKa [1]: no pKa value in the range 1-14 | Solubility in castor oil pure [2]: ≤ 3.6%
